Experimental findings from ChEMBL document CHEMBL3400119, “Triazole-containing N-acyl homoserine lactones targeting the quorum sensing system in Pseudomonas aeruginosa” (Bioorg Med Chem, 2015) are described below.

The IC50 is the concentration at which inhibition is half-maximal. Broadly, the EC50 is the concentration giving half of the maximal effect.

Activity calls are given as the source filed them. The rule behind the calls is not given here.

Sequence of Elastase (Pseudomonas aeruginosa (strain ATCC 15692 / PAO1 / 1C / PRS 101 / LMG12228)) (P14756 198-498 limits assumed): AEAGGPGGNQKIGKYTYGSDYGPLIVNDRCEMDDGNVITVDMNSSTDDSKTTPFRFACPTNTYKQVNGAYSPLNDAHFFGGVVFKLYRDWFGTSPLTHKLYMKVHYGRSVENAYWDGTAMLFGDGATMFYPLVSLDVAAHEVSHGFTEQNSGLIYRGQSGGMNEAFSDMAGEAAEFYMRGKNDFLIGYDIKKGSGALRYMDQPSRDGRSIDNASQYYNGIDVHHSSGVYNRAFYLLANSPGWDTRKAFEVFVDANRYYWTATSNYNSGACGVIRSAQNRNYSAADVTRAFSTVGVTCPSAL

The first assay deals with Pseudomonas aeruginosa. Description: (§1) Antagonist activity at rhlA in Pseudomonas aeruginosa harboring rhlA-gfp gene assessed as inhibition of […]-induced quorum sensing by green fluorescence protein reporter assay. (In general: A reporter such as luciferase makes a cellular process visible.)
Turning to `[N-]=[N+]=Nc1ccc(C(=O)N[C@H]2CCOC2=O)cc1`, the inhibition entry is “inactive”.

As for `Nc1ccc(-n2cc(-c3ccc(C(=O)N[C@H]4CCOC4=O)cc3)nn2)cc1`, the inhibition result was “inactive”.

Consider `O=C(Cn1cc(C2CCCCC2)nn1)N[C@H]1CCOC1=O`, for which the inhibition result was “inactive”.

As to `O=C(Cn1cc(-c2ccccc2)nn1)N[C@H]1CCOC1=O`, the inhibition result is “inactive”.

Regarding `CCCCCCc1cn(CC(=O)N[C@H]2CCOC2=O)nn1`, the inhibition result was “inactive”.

Regarding `O=Cc1cccc(-n2cc(CCC(=O)N[C@H]3CCOC3=O)nn2)c1`, the inhibition entry is “inactive”.

For `[N-]=[N+]=Nc1cccc(C(=O)N[C@H]2CCOC2=O)c1`, the inhibition result was “inactive”.

Take `CCCCc1cn(CC(=O)N[C@H]2CCOC2=O)nn1`: the inhibition result was “inactive”.

In the case of `O=C(Cn1cc(CSc2ccccc2)nn1)N[C@H]1CCOC1=O`, the inhibition entry was “inactive”.

System in another assay: not listed separately
The description is as §1.
Turning to `O=C(Cn1cc(C2CCCC2)nn1)N[C@H]1CCOC1=O`, the IC50 came out at 898 µM.

With `O=C(Cn1cc(-c2ccsc2)nn1)N[C@H]1CCOC1=O`, the IC50 came to 1030 µM.

Consider `CCCc1cn(CC(=O)N[C@H]2CCOC2=O)nn1`, for which the IC50 came to 927 µM.

Turning to `O=C(Cn1cc(C2CC2)nn1)N[C@H]1CCOC1=O`, the concentration for half-maximal inhibition (IC50) worked out at 799 µM.

Another assay addresses Elastase (Pseudomonas aeruginosa (strain ATCC 15692 / PAO1 / 1C / PRS 101 / LMG12228)) (UniProt P14756). Description: Antagonist activity at lasB in Pseudomonas aeruginosa harboring lasB-gfp gene assessed as inhibition of […]-induced quorum sensing by green fluorescence protein reporter assay.
With `Nc1ccc(-n2cc(-c3ccc(C(=O)N[C@H]4CCOC4=O)cc3)nn2)cc1`, the inhibition entry is “inactive”.

In the case of `O=C(Cn1cc(-c2ccccc2)nn1)N[C@H]1CCOC1=O`, the inhibition result was “inactive”.

Take `[N-]=[N+]=Nc1cccc(C(=O)N[C@H]2CCOC2=O)c1`: the inhibition entry was “inactive”.

In the case of `CCCCc1cn(CC(=O)N[C@H]2CCOC2=O)nn1`, the inhibition entry is “inactive”.

System in another assay: not listed separately
The assay can be described thus: Antagonist activity at luxI in Escherichia coli harboring luxI-gfp gene assessed as inhibition of 3-oxo-C6-HSL-induced quorum sensing by green fluorescence protein reporter assay.
`O=C(Cn1cc(C2CCCC2)nn1)N[C@H]1CCOC1=O`: the half-inhibitory concentration (IC50) came out at 50 µM.

As for `O=C(Cn1cc(-c2ccsc2)nn1)N[C@H]1CCOC1=O`, the IC50 worked out at 55 µM.

On to `[N-]=[N+]=Nc1ccc(C(=O)N[C@H]2CCOC2=O)cc1`, for which the IC50 amounted to 244 µM.

Turning to `Nc1ccc(-n2cc(-c3ccc(C(=O)N[C@H]4CCOC4=O)cc3)nn2)cc1`, the IC50 worked out at 95 µM.

Turning to `CCCc1cn(CC(=O)N[C@H]2CCOC2=O)nn1`, the IC50 stood at 71 µM.

As for `O=C(Cn1cc(C2CCCCC2)nn1)N[C@H]1CCOC1=O`, the IC50 was 342 µM.

With `O=C(Cn1cc(-c2ccccc2)nn1)N[C@H]1CCOC1=O`, the IC50 was 192 µM.

Regarding `CCCCCCc1cn(CC(=O)N[C@H]2CCOC2=O)nn1`, the IC50 was 578 µM.

As for `O=C(Cn1cc(C2CC2)nn1)N[C@H]1CCOC1=O`, the half-maximal inhibitory concentration (IC50) was 88 µM.

`O=Cc1cccc(-n2cc(CCC(=O)N[C@H]3CCOC3=O)nn2)c1`: the IC50 is 5 µM.

On to `[N-]=[N+]=Nc1cccc(C(=O)N[C@H]2CCOC2=O)c1`, for which the IC50 was 223 µM.

Turning to `CCCCc1cn(CC(=O)N[C@H]2CCOC2=O)nn1`, the IC50 amounted to 751 µM.

With `O=C(Cn1cc(CSc2ccccc2)nn1)N[C@H]1CCOC1=O`, the IC50 is 602 µM.

System in the next assay: not listed separately
Description: Agonist activity at lasB in Escherichia coli harboring lasB-gfp gene by green fluorescence protein reporter assay.
Consider `O=C(Cn1cc(C2CCCC2)nn1)N[C@H]1CCOC1=O`, for which the EC50 is 3 µM.

`Nc1cccc(-n2cc(CCC(=O)N[C@H]3CCOC3=O)nn2)c1` came in with an EC50 of 2 µM.

The molecule `O=C(Cn1cc(CC2CCCCC2)nn1)N[C@H]1CCOC1=O` came in with an EC50 of 8 µM.

`CCCCCc1cn(CC(=O)N[C@H]2CCOC2=O)nn1`: the EC50 turned out to be 1 µM.

The molecule `O=C(Cn1cc(C2CCCCC2)nn1)N[C@H]1CCOC1=O` gave an EC50 of 44 µM.

The molecule `CCCCCCc1cn(CC(=O)N[C@H]2CCOC2=O)nn1` had a half-maximal effective concentration (EC50) of 12 µM.

In turn, `O=Cc1cccc(-n2cc(CCC(=O)N[C@H]3CCOC3=O)nn2)c1` yielded a concentration for a half-maximal effect (EC50) of 71 µM.

`CCCCc1cn(CC(=O)N[C@H]2CCOC2=O)nn1` came in with an EC50 of 57 µM.

`O=C(Cn1cc(CSc2ccccc2)nn1)N[C@H]1CCOC1=O`: the 50% effective concentration (EC50) is 2 µM.
